Laboratory results published in ChEMBL document CHEMBL1141079, “Cytostatic 6-arylpurine nucleosides. 6. SAR in anti-HCV and cytostatic activity of extended series of 6-hetarylpurine ribonucleosides” (J Med Chem, 2005).

Experiments:
[1] = system: Hepatitis C virus; assay: Effective concentration required to reduce Hepatitis C virus; format: functional, Hepacivirus hominis
[2] = system: HL-60; assay: In vitro inhibitory concentration against human promyelocytic leukemia HL60 cell line; format: functional, cell-based
[3] = species on record: Homo sapiens; assay: Cytotoxic concentration required to reduce the cellular rRNA level in hepatitis C virus replicon cells
[4] = system: HeLa; assay: In vitro inhibitory concentration against human cervix carcinoma HeLaS3 cell line; n.a. is not active; format: functional, cell-based
[5] = system: HL-60; assay: In vitro inhibitory concentration against human promyelocytic leukemia HL60 cell line; n.a. is not active; format: functional, cell-based
[6] = system: L1210; assay: In vitro inhibitory concentration against mouse leukemia L1210 cell line; n.a. is not active; format: functional, cell-based
[7] = system: CCRF-CEM; assay: In vitro inhibitory concentration against human T lymphoblastoid CCRF-CEM cell line; format: functional, cell-based
[8] = system: L1210; assay: In vitro inhibitory concentration against mouse leukemia L1210 cell line; format: functional, cell-based
[9] = system: HeLa; assay: In vitro inhibitory concentration against human cervix carcinoma HeLaS3 cell line; format: functional, cell-based
[10] = Homo sapiens, CCRF-CEM, read-out: IC50

| EC90 [1] | IC50 [2] | IC50 [4] | IC50 [5] | IC50 [6] | IC50 [7, 10] | IC50 [8] | IC50 ([7]; ccrf-cem) | IC50 [9] | SMILES | CC50 [3] |
| --- | --- | --- | --- | --- | --- | --- | --- | --- | --- | --- |
| 16.7 µM | 6.3 µM |  |  |  |  |  |  |  | OC[C@H]1O[C@@H](n2cnc3c(-c4ccccc4)ncnc32)[C@H](O)[C@@H]1O | 8.3 µM |
| 0.8 µM | 1.17 µM | Not Active |  |  | 0.75 µM | 19.8 µM |  |  | OC[C@H]1OC(n2cnc3c(-c4cc[nH]n4)ncnc32)[C@H](O)[C@@H]1O (stereo partly drawn) | 0.6 µM |
| 6 µM | 5.6 µM |  |  |  | 0.9 µM | 4.3 µM |  | 9.7 µM | OC[C@H]1OC(n2cnc3c(-c4ccccn4)ncnc32)[C@H](O)[C@@H]1O (stereo partly drawn) | 2.7 µM |
| 0.14 µM | 3.2 µM | Not Active |  |  | 1.03 µM | 17.5 µM |  |  | OC[C@H]1OC(n2cnc3c(-c4cc[nH]c4)ncnc32)[C@H](O)[C@@H]1O (stereo partly drawn) | < 0.1 µM |
| 1.4 µM | 3.3 µM | Not Active |  | Not Active | 1.65 µM |  |  |  | OC[C@H]1OC(n2cnc3c(-c4ccoc4)ncnc32)[C@H](O)[C@@H]1O (stereo partly drawn) | 6.9 µM |
| 0.7 µM | 4.9 µM |  |  |  | 0.6 µM | 0.37 µM |  | 25 µM | OC[C@H]1O[C@@H](n2cnc3c(-c4cccs4)ncnc32)[C@H](O)[C@@H]1O | 1.1 µM |
| > 100 µM | 15.7 µM | Not Active |  | Not Active | 2 µM |  |  |  | Cn1cccc1-c1ncnc2c1ncn2C1O[C@H](CO)[C@@H](O)[C@H]1O (stereo partly drawn) | > 100 µM |
| > 100 µM | 4.5 µM |  |  | Not Active | 2.5 µM |  |  | > 20 µM | Cc1ccsc1-c1ncnc2c1ncn2C1O[C@H](CO)[C@@H](O)[C@H]1O (stereo partly drawn) | > 100 µM |
| 2.6 µM | 7.6 µM |  |  |  | 1.25 µM | 5 µM |  | 32.5 µM | OC[C@H]1OC(n2cnc3c(-c4ccc(O)cc4)ncnc32)[C@H](O)[C@@H]1O (stereo partly drawn) | 5.2 µM |
| > 100 µM |  | Not Active | Not Active | Not Active |  |  | Not Active |  | Cn1nccc1-c1ncnc2c1ncn2C1O[C@H](CO)[C@@H](O)[C@H]1O (stereo partly drawn) | > 100 µM |
| 0.4 µM | 2.7 µM |  |  |  | 0.6 µM | 2 µM |  | 25 µM | OC[C@H]1OC(n2cnc3c(-c4ccco4)ncnc32)[C@H](O)[C@@H]1O (stereo partly drawn) | 1.6 µM |

Further lines, the compound ahead of its results:

| SMILES | EC90 [1] | IC50 [2] | IC50 [4] | IC50 [5] | IC50 [6] | IC50 [7, 10] | IC50 [8] | IC50 ([7]; ccrf-cem) | IC50 [9] | CC50 [3] |
| --- | --- | --- | --- | --- | --- | --- | --- | --- | --- | --- |
| Cc1csc(-c2ncnc3c2ncn3C2O[C@H](CO)[C@@H](O)[C@H]2O)n1 (stereo partly drawn) | > 100 µM |  | Not Active | Not Active | Not Active | 6 µM |  |  |  | > 100 µM |
| Cc1cc(-c2ncnc3c2ncn3C2O[C@H](CO)[C@@H](O)[C@H]2O)on1 (stereo partly drawn) | > 100 µM |  | Not Active | Not Active | Not Active |  |  | Not Active |  | > 100 µM |
| OC[C@H]1OC(n2cnc3c(-c4ccc(F)cc4)ncnc32)[C@H](O)[C@@H]1O (stereo partly drawn) | 49.5 µM | 6.3 µM |  |  |  | 0.7 µM |  |  | 2.7 µM | 9.2 µM |
| COc1ccc(-c2ncnc3c2ncn3C2O[C@H](CO)[C@@H](O)[C@H]2O)cc1 (stereo partly drawn) | > 100 µM | 7.6 µM |  |  |  |  |  |  |  | < 10 µM |
| OC[C@H]1OC(n2cnc3c(-c4ccc(Cl)cc4)ncnc32)[C@H](O)[C@@H]1O (stereo partly drawn) | > 100 µM |  |  | Not Active | Not Active |  |  |  |  | > 100 µM |
| OC[C@H]1OC(n2cnc3c(-c4ccsc4)ncnc32)[C@H](O)[C@@H]1O (stereo partly drawn) | 0.82 µM | 3.8 µM | Not Active |  |  | 1.64 µM | 10.8 µM |  |  | < 0.1 µM |
| C[C@@]1(O)[C@H](O)[C@@H](CO)O[C@H]1n1cnc2c(N)ncnc21 | 1.14 µM |  |  |  |  |  |  |  |  | 15 µM |
| OC[C@H]1OC(n2cnc3c(-c4cc5ccccc5o4)ncnc32)[C@H](O)[C@@H]1O (stereo partly drawn) | > 100 µM |  | Not Active | Not Active | Not Active | 15 µM |  |  |  | > 100 µM |
| Cc1csc(-c2ncnc3c2ncn3C2O[C@H](CO)[C@@H](O)[C@H]2O)c1 (stereo partly drawn) | 40.7 µM | 5.6 µM |  |  | Not Active | 2.9 µM |  |  | 11.4 µM | 7 µM |
| OC[C@H]1OC(n2cnc3c(-c4nccs4)ncnc32)[C@H](O)[C@@H]1O (stereo partly drawn) | 6 µM | 6.3 µM | Not Active |  |  | 2.73 µM | 16 µM |  |  | 6.7 µM |
